Measured values from the supplement of paper PMC13380429.

Assays:
Details in all cases: 72 h
Caco-2 [1] = test: cell viability relative to DMSO; higher = less toxic
Calu-3 [2] = test: as above
HepG2 [3] = test: as above
U2OS [4] = test: as above
Vero E6 [5] = test: as above
Caco-2 [6] = test: relative viability EC50 (midpoint between 100% and the lowest measured viability); higher = less toxic
Calu-3 [7] = test: as above
HepG2 [8] = test: as above
U2OS [9] = test: as above
Vero E6 [10] = test: as above
Caco-2 [11] = test: drug sensitivity score (DSS) for viability; higher = more toxic; extreme values may be limits of the assay
Calu-3 [12] = test: as above
HepG2 [13] = test: as above
U2OS [14] = test: as above
Vero E6 [15] = test: as above

For Cc1cc(S(=O)(=O)O)c2c(C)ccc(C(C)C)cc1-2 [sodium-gualenate], which cell viability (Caco-2 [1]; 1 nM) is on record?
Its cell viability is 90.8%.

What about the cell viability (Caco-2 [1]; 10 nM) of the same molecule?
Its cell viability is 95.5%.

And the cell viability (Caco-2 [1]; 100 nM)?
The cell viability was 92.2%.

And the cell viability (Caco-2 [1]; 1000 nM)?
The cell viability was 92.8%.

What about the cell viability (Caco-2 [1]; 10000 nM) of the same molecule?
Its cell viability is 89.3%.

What about the cell viability (Calu-3 [2]; 1 nM) of the same molecule?
Its cell viability is 109%.

And the cell viability (Calu-3 [2]; 10 nM)?
The cell viability was 91.8%.

And the cell viability (Calu-3 [2]; 100 nM)?
Its cell viability is 112%.

What about the cell viability (Calu-3 [2]; 1000 nM) of the same molecule?
Its cell viability is 103%.

What about the cell viability (Calu-3 [2]; 10000 nM) of the same molecule?
Its cell viability is 100%.

And the cell viability (HepG2 [3]; 1 nM)?
The cell viability was 97.3%.

And the cell viability (HepG2 [3]; 10 nM)?
Its cell viability is 87.1%.

What about the cell viability (HepG2 [3]; 100 nM) of the same molecule?
The cell viability was 103%.

What about the cell viability (HepG2 [3]; 1000 nM) of the same molecule?
The cell viability was 94.6%.

And the cell viability (HepG2 [3]; 10000 nM)?
Its cell viability is 108%.

What about the cell viability (U2OS [4]; 1 nM) of the same molecule?
The cell viability was 92.8%.

And the cell viability (U2OS [4]; 10 nM)?
The cell viability was 95.2%.

What about the cell viability (U2OS [4]; 100 nM) of the same molecule?
The cell viability was 98%.

What about the cell viability (U2OS [4]; 1000 nM) of the same molecule?
Its cell viability is 101%.

What about the cell viability (U2OS [4]; 10000 nM) of the same molecule?
Its cell viability is 104%.

What about the cell viability (Vero E6 [5]; 1 nM) of the same molecule?
Its cell viability is 98%.

What about the cell viability (Vero E6 [5]; 10 nM) of the same molecule?
Its cell viability is 106%.

And the cell viability (Vero E6 [5]; 100 nM)?
Its cell viability is 101%.

And the cell viability (Vero E6 [5]; 1000 nM)?
Its cell viability is 93.2%.

And the cell viability (Vero E6 [5]; 10000 nM)?
The cell viability was 92.8%.

What about the “relative viability EC50” value (Caco-2 [6]) of the same molecule?
Its value is greater than 10000 nM.

What about the “relative viability EC50” value (Calu-3 [7]) of the same molecule?
The value was greater than 10000 nM.

And the “relative viability EC50” value (HepG2 [8])?
Its value is greater than 10000 nM.

What about the “relative viability EC50” value (U2OS [9]) of the same molecule?
Its value is greater than 10000 nM.

What about the “relative viability EC50” value (Vero E6 [10]) of the same molecule?
The value was greater than 10000 nM.

And the drug sensitivity score (Caco-2 [11])?
Its drug sensitivity score is 0.

What about the drug sensitivity score (Calu-3 [12]) of the same molecule?
Its drug sensitivity score is 0.

What about the drug sensitivity score (HepG2 [13]) of the same molecule?
The drug sensitivity score was 0.

What about the drug sensitivity score (U2OS [14]) of the same molecule?
The drug sensitivity score was 0.

And the drug sensitivity score (Vero E6 [15])?
The drug sensitivity score was 0.

With COc1cccc(-c2cc(F)ccc2[C@H]2Cc3nc(N)nc(C)c3C(=O)N2)n1 [NVP-HSP990] as the molecule, how does the cell viability (Caco-2 [1]; 1 nM) read?
Its cell viability is 110%.

What about the cell viability (Caco-2 [1]; 10 nM) of the same molecule?
The cell viability was 67.8%.

What about the cell viability (Caco-2 [1]; 100 nM) of the same molecule?
Its cell viability is 51.1%.

And the cell viability (Caco-2 [1]; 1000 nM)?
Its cell viability is 42.2%.

What about the cell viability (Caco-2 [1]; 10000 nM) of the same molecule?
Its cell viability is 41%.

What about the cell viability (Calu-3 [2]; 1 nM) of the same molecule?
Its cell viability is 108%.

And the cell viability (Calu-3 [2]; 10 nM)?
The cell viability was 97.1%.

And the cell viability (Calu-3 [2]; 100 nM)?
Its cell viability is 43.5%.

What about the cell viability (Calu-3 [2]; 1000 nM) of the same molecule?
The cell viability was 34.4%.

And the cell viability (Calu-3 [2]; 10000 nM)?
The cell viability was 36.2%.

What about the cell viability (HepG2 [3]; 1 nM) of the same molecule?
The cell viability was 105%.

What about the cell viability (HepG2 [3]; 10 nM) of the same molecule?
Its cell viability is 104%.

What about the cell viability (HepG2 [3]; 100 nM) of the same molecule?
The cell viability was 0.7%.

And the cell viability (HepG2 [3]; 1000 nM)?
Its cell viability is 0.2%.

What about the cell viability (HepG2 [3]; 10000 nM) of the same molecule?
The cell viability was 0.5%.

What about the cell viability (U2OS [4]; 1 nM) of the same molecule?
Its cell viability is 102%.

And the cell viability (U2OS [4]; 10 nM)?
The cell viability was 94.9%.

What about the cell viability (U2OS [4]; 100 nM) of the same molecule?
The cell viability was 19.3%.

And the cell viability (U2OS [4]; 1000 nM)?
Its cell viability is 2.5%.

And the cell viability (U2OS [4]; 10000 nM)?
Its cell viability is 3.2%.

And the cell viability (Vero E6 [5]; 1 nM)?
The cell viability was 101%.

What about the cell viability (Vero E6 [5]; 10 nM) of the same molecule?
Its cell viability is 112%.

And the cell viability (Vero E6 [5]; 100 nM)?
The cell viability was 47.3%.

What about the cell viability (Vero E6 [5]; 1000 nM) of the same molecule?
The cell viability was 27.8%.

And the cell viability (Vero E6 [5]; 10000 nM)?
The cell viability was 26.6%.

And the “relative viability EC50” value (Caco-2 [6])?
Its value is 9.4 nM.

What about the “relative viability EC50” value (Calu-3 [7]) of the same molecule?
The value was 42.7 nM.

And the “relative viability EC50” value (HepG2 [8])?
The value was 34.3 nM.

And the “relative viability EC50” value (U2OS [9])?
The value was 44.6 nM.

And the “relative viability EC50” value (Vero E6 [10])?
The value was 69.7 nM.

What about the drug sensitivity score (Caco-2 [11]) of the same molecule?
Its drug sensitivity score is 22.6.

And the drug sensitivity score (Calu-3 [12])?
The drug sensitivity score was 19.3.

And the drug sensitivity score (HepG2 [13])?
Its drug sensitivity score is 30.

And the drug sensitivity score (U2OS [14])?
Its drug sensitivity score is 27.7.

What about the drug sensitivity score (Vero E6 [15]) of the same molecule?
Its drug sensitivity score is 19.6.

With COc1cc(OC)c(/C=C/S(=O)(=O)Cc2ccc(OC)c(OP(=O)(O)O)c2)c(OC)c1 [briciclib] as the molecule, how does the cell viability (Caco-2 [1]; 1 nM) read?
Its cell viability is 106%.

And the cell viability (Caco-2 [1]; 10 nM)?
Its cell viability is 103%.

What about the cell viability (Caco-2 [1]; 100 nM) of the same molecule?
Its cell viability is 45.1%.

What about the cell viability (Caco-2 [1]; 1000 nM) of the same molecule?
The cell viability was 42%.

And the cell viability (Caco-2 [1]; 10000 nM)?
The cell viability was 42.9%.

What about the cell viability (Calu-3 [2]; 1 nM) of the same molecule?
The cell viability was 101%.

What about the cell viability (Calu-3 [2]; 10 nM) of the same molecule?
The cell viability was 108%.

And the cell viability (Calu-3 [2]; 100 nM)?
The cell viability was 94.9%.

And the cell viability (Calu-3 [2]; 1000 nM)?
The cell viability was 65.2%.

And the cell viability (Calu-3 [2]; 10000 nM)?
Its cell viability is 41%.

And the cell viability (HepG2 [3]; 1 nM)?
The cell viability was 113%.

What about the cell viability (HepG2 [3]; 10 nM) of the same molecule?
The cell viability was 108%.

And the cell viability (HepG2 [3]; 100 nM)?
Its cell viability is 56.1%.

What about the cell viability (HepG2 [3]; 1000 nM) of the same molecule?
Its cell viability is 36%.

What about the cell viability (HepG2 [3]; 10000 nM) of the same molecule?
The cell viability was 38.7%.

What about the cell viability (U2OS [4]; 1 nM) of the same molecule?
The cell viability was 102%.

What about the cell viability (U2OS [4]; 10 nM) of the same molecule?
Its cell viability is 104%.

And the cell viability (U2OS [4]; 100 nM)?
The cell viability was 73.4%.

And the cell viability (U2OS [4]; 1000 nM)?
Its cell viability is 23.7%.

And the cell viability (U2OS [4]; 10000 nM)?
Its cell viability is 18.2%.

And the cell viability (Vero E6 [5]; 1 nM)?
The cell viability was 95.9%.

And the cell viability (Vero E6 [5]; 10 nM)?
Its cell viability is 92.2%.

And the cell viability (Vero E6 [5]; 100 nM)?
Its cell viability is 23.6%.

What about the cell viability (Vero E6 [5]; 1000 nM) of the same molecule?
Its cell viability is 21.2%.

What about the cell viability (Vero E6 [5]; 10000 nM) of the same molecule?
The cell viability was 26.9%.

And the “relative viability EC50” value (Caco-2 [6])?
Its value is 39.2 nM.

What about the “relative viability EC50” value (Calu-3 [7]) of the same molecule?
The value was 750 nM.

And the “relative viability EC50” value (HepG2 [8])?
The value was 73.8 nM.

What about the “relative viability EC50” value (U2OS [9]) of the same molecule?
The value was 161 nM.

And the “relative viability EC50” value (Vero E6 [10])?
The value was 24.6 nM.

What about the drug sensitivity score (Caco-2 [11]) of the same molecule?
Its drug sensitivity score is 17.5.

What about the drug sensitivity score (Calu-3 [12]) of the same molecule?
The drug sensitivity score was 7.4.

And the drug sensitivity score (HepG2 [13])?
Its drug sensitivity score is 17.

What about the drug sensitivity score (U2OS [14]) of the same molecule?
Its drug sensitivity score is 17.5.

What about the drug sensitivity score (Vero E6 [15]) of the same molecule?
Its drug sensitivity score is 25.5.
